{"source": "patent US20260327211A1", "about": "“MODULATORS OF A POTASSIUM CHANNEL AND OF TRPV1 CHANNEL AND USES THEREOF” (Bsense Bio Therapeutics Ltd., priority 2023, published 2026)", "key": {"98 targets": {"tested_on": "98 targets", "assay": "Functional screening panel, 98 targets"}, "Cav1.2": {"target": "Cav1.2 (Homo sapiens, UniProt Q13936)", "sequence (Q13936 whole entry)": "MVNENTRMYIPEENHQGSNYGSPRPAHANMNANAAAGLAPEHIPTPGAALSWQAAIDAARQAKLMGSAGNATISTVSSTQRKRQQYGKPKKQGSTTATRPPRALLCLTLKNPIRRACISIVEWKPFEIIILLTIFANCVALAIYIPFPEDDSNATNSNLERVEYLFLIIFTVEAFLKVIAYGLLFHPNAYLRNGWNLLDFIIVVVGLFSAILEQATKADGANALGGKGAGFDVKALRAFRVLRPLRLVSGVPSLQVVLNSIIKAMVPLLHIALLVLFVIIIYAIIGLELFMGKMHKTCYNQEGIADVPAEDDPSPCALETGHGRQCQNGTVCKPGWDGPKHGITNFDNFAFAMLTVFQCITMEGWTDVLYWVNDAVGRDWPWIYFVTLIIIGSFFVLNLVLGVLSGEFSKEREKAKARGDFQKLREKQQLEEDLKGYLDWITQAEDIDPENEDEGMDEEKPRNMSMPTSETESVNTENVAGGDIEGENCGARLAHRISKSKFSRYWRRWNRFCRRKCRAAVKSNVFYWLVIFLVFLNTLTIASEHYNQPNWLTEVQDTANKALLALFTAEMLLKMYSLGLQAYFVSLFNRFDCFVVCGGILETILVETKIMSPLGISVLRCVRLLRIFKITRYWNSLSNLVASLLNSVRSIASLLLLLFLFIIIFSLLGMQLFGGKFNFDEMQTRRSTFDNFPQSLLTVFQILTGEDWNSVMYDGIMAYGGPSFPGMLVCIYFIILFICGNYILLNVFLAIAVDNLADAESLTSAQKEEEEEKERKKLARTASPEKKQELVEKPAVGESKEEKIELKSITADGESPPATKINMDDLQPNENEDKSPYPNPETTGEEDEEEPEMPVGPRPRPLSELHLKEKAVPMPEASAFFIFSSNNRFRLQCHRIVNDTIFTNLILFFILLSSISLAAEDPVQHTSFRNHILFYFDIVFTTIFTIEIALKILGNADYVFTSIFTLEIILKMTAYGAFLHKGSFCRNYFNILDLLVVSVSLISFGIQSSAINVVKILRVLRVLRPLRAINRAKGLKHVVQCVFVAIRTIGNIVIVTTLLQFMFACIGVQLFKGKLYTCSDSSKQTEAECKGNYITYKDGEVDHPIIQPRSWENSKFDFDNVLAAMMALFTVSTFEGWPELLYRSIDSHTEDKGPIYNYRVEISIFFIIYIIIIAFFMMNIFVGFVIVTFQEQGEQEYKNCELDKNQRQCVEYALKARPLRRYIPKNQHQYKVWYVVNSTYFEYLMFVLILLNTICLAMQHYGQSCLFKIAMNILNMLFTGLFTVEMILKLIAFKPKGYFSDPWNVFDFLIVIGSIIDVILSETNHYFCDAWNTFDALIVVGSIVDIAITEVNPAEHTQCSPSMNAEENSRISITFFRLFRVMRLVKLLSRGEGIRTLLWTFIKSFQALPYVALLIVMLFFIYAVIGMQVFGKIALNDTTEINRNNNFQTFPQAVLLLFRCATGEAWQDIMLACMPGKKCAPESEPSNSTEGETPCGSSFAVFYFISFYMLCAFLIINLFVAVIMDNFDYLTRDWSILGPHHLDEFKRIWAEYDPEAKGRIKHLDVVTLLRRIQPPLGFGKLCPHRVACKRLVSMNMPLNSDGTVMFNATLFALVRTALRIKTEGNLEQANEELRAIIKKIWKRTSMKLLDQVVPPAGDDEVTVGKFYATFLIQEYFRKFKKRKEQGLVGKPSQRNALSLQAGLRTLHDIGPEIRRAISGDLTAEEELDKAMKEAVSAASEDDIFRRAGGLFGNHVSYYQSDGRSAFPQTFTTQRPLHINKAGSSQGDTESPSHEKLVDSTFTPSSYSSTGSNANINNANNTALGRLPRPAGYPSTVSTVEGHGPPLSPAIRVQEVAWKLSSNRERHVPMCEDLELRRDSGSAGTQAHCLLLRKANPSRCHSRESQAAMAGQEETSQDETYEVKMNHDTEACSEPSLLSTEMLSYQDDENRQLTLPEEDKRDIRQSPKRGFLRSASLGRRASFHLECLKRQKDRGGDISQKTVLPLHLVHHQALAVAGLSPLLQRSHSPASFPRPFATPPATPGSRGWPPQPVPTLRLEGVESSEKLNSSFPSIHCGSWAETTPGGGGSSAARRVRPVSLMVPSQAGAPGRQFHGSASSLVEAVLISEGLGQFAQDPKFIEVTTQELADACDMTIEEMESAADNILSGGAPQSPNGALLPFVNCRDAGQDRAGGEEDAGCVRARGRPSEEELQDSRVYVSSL", "sequence (P54289 25-944 partner limits assumed)": "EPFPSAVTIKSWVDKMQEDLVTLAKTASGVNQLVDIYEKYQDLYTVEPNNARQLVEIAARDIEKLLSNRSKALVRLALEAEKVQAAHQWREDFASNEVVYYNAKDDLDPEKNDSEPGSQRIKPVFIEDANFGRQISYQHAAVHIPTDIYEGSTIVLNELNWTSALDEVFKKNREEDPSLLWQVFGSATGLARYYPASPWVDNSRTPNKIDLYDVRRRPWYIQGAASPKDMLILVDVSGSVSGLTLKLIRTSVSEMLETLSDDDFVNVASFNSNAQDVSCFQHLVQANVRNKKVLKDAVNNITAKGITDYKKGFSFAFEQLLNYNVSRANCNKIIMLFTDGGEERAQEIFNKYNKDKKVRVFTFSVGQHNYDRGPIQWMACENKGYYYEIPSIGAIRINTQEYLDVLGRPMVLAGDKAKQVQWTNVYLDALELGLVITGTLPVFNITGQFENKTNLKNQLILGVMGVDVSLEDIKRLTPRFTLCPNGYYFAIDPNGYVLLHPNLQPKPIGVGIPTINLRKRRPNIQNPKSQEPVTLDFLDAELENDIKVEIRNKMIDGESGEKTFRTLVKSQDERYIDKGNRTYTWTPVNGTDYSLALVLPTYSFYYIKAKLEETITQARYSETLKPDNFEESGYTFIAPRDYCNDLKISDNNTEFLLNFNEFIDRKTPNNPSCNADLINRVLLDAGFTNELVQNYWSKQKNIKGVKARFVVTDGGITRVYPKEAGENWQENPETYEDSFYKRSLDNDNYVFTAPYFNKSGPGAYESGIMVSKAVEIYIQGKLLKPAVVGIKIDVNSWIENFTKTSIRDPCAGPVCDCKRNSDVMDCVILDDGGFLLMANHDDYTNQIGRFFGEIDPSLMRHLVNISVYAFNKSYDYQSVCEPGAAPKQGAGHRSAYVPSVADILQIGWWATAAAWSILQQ", "sequence (P54289 945-1103 partner limits assumed)": "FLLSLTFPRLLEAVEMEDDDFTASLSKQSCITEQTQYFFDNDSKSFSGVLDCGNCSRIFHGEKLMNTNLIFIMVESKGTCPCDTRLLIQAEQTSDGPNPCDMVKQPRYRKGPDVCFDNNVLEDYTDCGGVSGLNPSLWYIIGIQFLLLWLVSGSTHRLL", "assay": "Functional screening panel, Cav1.2", "assay_type": "biochemical", "details": "read-out: IC/EC50 Cav1.2", "experimental": "A broad panel of 78 recombinant targets was tested for pharmacologic activity in vitro through a variety of functional assays (Eurofins DiscoverX, USA), as part of the National Institute of Neurological Disorders and Stroke (NINDS) Preclinical Screening Platform for Pain (PSPP) program. The biological targets for the in vitro profiling have been selected based on avoiding opioid receptor stimulation and targets known to be associated with adverse events or targeted by drugs of abuse. […] For each test, a reference compound was evaluated at the target of interest as a positive control."}, "In vitro micronucleus": {"assay": "In vitro micronucleus", "assay_type": "cell-based", "details": "hamster, cho-k1 cells, read-out: Cytotoxicity (%) Absolute EC50", "experimental": "(§1) The micronucleus assay was performed according to the regulatory guidelines. In brief, CHO-K1 cells were plated at 10000 cells/well in 3 plates and incubated In CHO-K1 growth medium (containing F12K, 10% FBS and 1% PS) overnight.\n(§2) As a control for the S9 treatment, plate No. 1, cells were treated with cyclophosphamide as a positive control, for 3 hours. For plate No. 2, without S9 treatment, cells were treated with mitomycin C as a positive control, compounds for 3 hours, and for plate No. 3, without S9 treatment, cells were treated with bleomycin sulfate as a positive control continuously for 24 hours.\n(§3) On the following day, 6 μg/mL of cytochalasin B were added to each well and plates were further incubated overnight. In the day after medium was replaced with a combined 10 μg/mL Hoechst dye solution and 0.5 μM calcein-AM in 100 μL warm DPBS for 30 minutes and the plates were scanned using CQ1 high-content analysis system."}, "CHO-K1 cells": {"tested_on": "CHO-K1 cells", "assay": "In vitro micronucleus", "assay_type": "cell-based", "experimental": "as §1, §2, §3"}, "OATP1B3": {"target": "OATP1B3 (Homo sapiens, UniProt Q9NPD5)", "sequence (Q9NPD5 whole entry)": "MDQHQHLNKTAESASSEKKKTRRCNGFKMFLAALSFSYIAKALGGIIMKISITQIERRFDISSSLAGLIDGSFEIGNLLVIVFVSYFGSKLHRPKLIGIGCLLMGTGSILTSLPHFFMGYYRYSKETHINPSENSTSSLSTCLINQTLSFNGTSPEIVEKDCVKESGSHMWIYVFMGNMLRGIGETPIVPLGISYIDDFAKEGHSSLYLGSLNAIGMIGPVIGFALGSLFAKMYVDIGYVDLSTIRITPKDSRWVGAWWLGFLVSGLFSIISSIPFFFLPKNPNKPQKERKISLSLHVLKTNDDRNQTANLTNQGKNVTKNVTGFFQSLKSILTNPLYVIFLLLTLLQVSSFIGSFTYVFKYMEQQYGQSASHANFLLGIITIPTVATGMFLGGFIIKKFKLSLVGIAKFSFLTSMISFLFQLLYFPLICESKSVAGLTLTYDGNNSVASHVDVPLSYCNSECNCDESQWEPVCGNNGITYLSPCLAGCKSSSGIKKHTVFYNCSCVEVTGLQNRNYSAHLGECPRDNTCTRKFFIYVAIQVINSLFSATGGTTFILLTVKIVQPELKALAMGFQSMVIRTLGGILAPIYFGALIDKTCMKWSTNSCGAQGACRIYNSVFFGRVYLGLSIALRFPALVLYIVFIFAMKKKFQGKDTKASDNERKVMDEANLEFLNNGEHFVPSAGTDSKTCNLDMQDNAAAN", "assay": "Transporter substrate, OATP1B3", "assay_type": "in vitro ADME", "details": "role: substrate", "experimental": "Additionally, compound 760 was tested for its capability to act as a transporter substrate for various transporters, and was not found to be a transporter substrate for any of the tested transporters."}, "human sensory neurons": {"tested_on": "human sensory neurons", "assay": "Human NPC-derived sensory neurons, spontaneous activity", "assay_type": "cell-based", "details": "5 μM", "experimental": "Cell culture and differentiation: Human PSC-derived neural progenitor cells (Stem Cell Catalog No. 70901 and 70902) were cultured and expanded on Matrigel coated 6-wells plates, using neuronal progenitor medium containing: Neurobasal media supplemented by non-essential amino-acids, 1%; Glutamax, 1%; B27, 2%, FGF2, 20 ng/mL). hNPC were then plated onto PDL and Matrigel coated 12 mm coverglass at a density of about 50,000 cells/well of a 6 well, in DMEM/F12; 10% KSR; 1% P/S and A83-01 (2 μM) from days 0-5. From days 0-9 the medium contained also CHIR99021 (6 μM). From Day 3-9 the medium included RO4929097 (2 μM) and SU5402 (3 μM). […]\nElectrophysiology: To characterize the neuronal properties with electrophysiology recordings, round small neurons (20-40 μm in diameter) were selected from day 31 and onwards. Cells were monitored for their polarized negative membrane potential and for their ability to evoke consistent spikes train responses to repeated positive current injections as a mark of achieving electrical maturation before testing the effect of the tested compounds on neuronal excitability. Membrane excitability was monitored using current clamp. […]\nThe inhibitory potency of the newly designed compounds as described herein was evaluated based on their ability to reduce the spontaneous neuronal activity."}, "HepG2 cells": {"tested_on": "HepG2 cells", "assay": "HepG2 toxicity, ATPlite", "assay_type": "cell-based, human", "details": "up to limit of solubility", "experimental": "Cell culture: HepG2 cell-line cells were cultured in EMEM (ATCC 30-2033) medium supplemented with 10% fetal bovine serum (Biological Industries) in a humidified 5% CO2 incubator at 37° C.\nATPlite™ 1step Kit: ATPlite™ 1step kit (PerkinElmer) was used in a 384-wells format to assess potential liver toxicity using HepG2 cells. This is an ATP detection system based on firefly luciferase luminescence for the quantitative evaluation of proliferation and cytotoxicity of cells. ATP is a marker for cell viability because it is present in all metabolically active cells and its concentration declines very rapidly when the cells undergo necrosis or apoptosis.\nAccording to an optimization process done to achieve uniform and consistent screening condition of molecules, the following protocol was established: Cells were seeded in 384-well, black-walled, clear-bottomed, at a density of 4000 cells per well […] and incubated overnight in their normal growth medium. On day two (48 hours before viability measurement), the tested compounds and the positive control were applied to the wells according to the plate design. […] 48 hours later, reconstituted lyophilized substrate solution was added to each well and the sealed 384-well microplate was mixed for 2 minutes at 1100 rpm in an orbital microplate and plates were incubated for 10 minutes in the dark at room temperature. Right after, luminescence was measured in the Tecan plate reader. To estimate the LD50 and LD25 values the data was fitted to sigmoidal regression using Prism-GraphPad. […]"}, "rats": {"tested_on": "rats", "assay": "Modified Irwin test", "assay_type": "in vivo, rat", "details": "up to 300 mg/kg, male and female"}}}
{"smiles": "O=C(Cc1nccc(-n2cc(Cl)c3cc(Cl)cc(Cl)c32)n1)NC1COCC1O", "note": "(stereo not shown) [Compound 760]", "values": [{"measurement": "Off-target effect profile", "setting": "98 targets", "result": "clean off-target effect profile"}, {"measurement": "IC50", "setting": "Cav1.2", "result": 2.99, "unit": "µM"}, {"measurement": "CC50 at 3 h", "setting": "In vitro micronucleus; Plate 2 without S9, 3 hours", "result": "> 200", "unit": "µM"}, {"measurement": "CC50 at 24 h", "setting": "In vitro micronucleus; Plate 3 without S9, 24 hours", "result": 81.2, "unit": "µM"}, {"measurement": "Micronucleus formation", "setting": "CHO-K1 cells", "result": "lacks significant micronucleus formation"}, {"measurement": "Micronucleus response Absolute MEC", "setting": "CHO-K1 cells; Plate 1 with S9, 3 hours", "result": ">200", "unit": "µM"}, {"measurement": "CC50", "setting": "CHO-K1 cells; Plate 1 with S9, 3 hours, read-out: Cytotoxicity (%) Absolute EC50", "result": "> 200", "unit": "µM"}, {"measurement": "Micronucleus response Absolute MEC", "setting": "CHO-K1 cells; Plate 2 without S9, 3 hours", "result": ">200", "unit": "µM"}, {"measurement": "Micronucleus response Absolute MEC", "setting": "CHO-K1 cells; Plate 3 without S9, 24 hours", "result": ">200", "unit": "µM"}, {"measurement": "OATP1B3 substrate", "setting": "OATP1B3", "result": "not a transporter substrate"}]}
{"smiles": "COC[C@@H](CO)NC(=O)Cc1cc(Sc2c(Cl)cc(F)cc2C(C)C)ccc1F", "note": "[Compound 415]", "values": [{"measurement": "Spontaneous activity of human sensory neurons", "setting": "human sensory neurons", "result": "significantly reduced"}]}
{"smiles": "O=C(Cc1cncc(-n2cc(Cl)c3cc(Cl)cc(Cl)c32)c1)N[C@@H]1COC[C@H]1O", "note": "[Compound 661]", "values": [{"measurement": "HepG2 toxicity", "setting": "HepG2 cells", "result": "no evidence of toxicity up to the compound's limit of solubility"}, {"measurement": "Modified Irwin FOB", "setting": "rats", "result": "no effects up to 300 mg/kg"}]}
